Measured values: PMC12587574, “Mass balance, pharmacokinetics, metabolism, and excretion of radiolabeled acoziborole, a potential novel treatment for human African trypanosomiasis, following single microtracer oral dose to humans” (Antimicrobial Agents and Chemotherapy, 2025)
Values joined by “and” are separate entries in the source; they are usually repeats but may differ in a detail not shown here. Equal values may be shown once.

Legend:
[1] = biological target: T1, CYP3A4 (Homo sapiens, UniProt P08684); experiment: Incubation with CYP450 recombinant enzymes (Bactosomes) and NADPH; format: in vitro ADME; details: 1 µM
T1 construct: purchased
T1 sequence (P08684 whole entry): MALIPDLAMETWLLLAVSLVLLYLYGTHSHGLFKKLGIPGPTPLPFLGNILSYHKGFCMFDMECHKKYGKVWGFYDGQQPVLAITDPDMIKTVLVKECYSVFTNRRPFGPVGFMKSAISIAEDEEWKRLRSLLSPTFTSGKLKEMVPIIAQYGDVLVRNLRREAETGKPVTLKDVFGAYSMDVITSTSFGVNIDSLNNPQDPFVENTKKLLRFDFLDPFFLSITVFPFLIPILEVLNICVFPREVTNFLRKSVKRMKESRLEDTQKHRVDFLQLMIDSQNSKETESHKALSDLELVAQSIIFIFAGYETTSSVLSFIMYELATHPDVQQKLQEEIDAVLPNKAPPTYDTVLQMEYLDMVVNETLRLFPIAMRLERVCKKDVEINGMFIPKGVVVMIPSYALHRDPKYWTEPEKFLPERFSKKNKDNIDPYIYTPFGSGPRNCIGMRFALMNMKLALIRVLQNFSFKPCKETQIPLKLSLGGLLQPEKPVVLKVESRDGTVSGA

[2] = Total radioactivity in blood and plasma by accelerator mass spectrometry, phase I mass balance study; format: in vivo, human; details: 960 mg single oral dose
Procedure: Venous blood samples were collected via an indwelling cannula or by venepuncture. A 12 mL sample was taken into heparinized glass tube and chilled on ice immediately before IP administration and 3 mL samples were taken at 1, 4, 9, 12, 24, 48, 72, 96, 120, 144, 168, and 240 h and on Days 15, 31, 59, 89, and 119 after IP administration. The first 0.5 mL of blood withdrawn via cannula was discarded. One aliquot of heparinized whole blood (1 mL) per time point was stored at or below −20°C for total radioactivity analysis. The remaining blood was centrifuged, and the harvested plasma was stored at approximately −20°C for bioanalysis or transferred (exactly 1 mL) into polypropylene tubes pre-filled with 5 µL formic acid. One plasma sample (0.5 mL) was used for metabolite profiling while another (0.5 mL) was used for parent drug and SCYX-3109 metabolite analysis. The remaining plasma was used for total radioactivity analysis.
TNO (Leiden, the Netherlands) performed the analysis of total radioactivity and the metabolite profiling and identification. All blood, plasma, urine, and fecal homogenate samples were analyzed for total radioactivity by accelerator mass spectrometry (AMS). AMS analysis was performed on a 1 MV multi-element AMS, model 4110 Bo, high voltage engineering (software: AMS 155), using Australian National University (ANU) sucrose-8542 (C12H22O11) with a certified ^14C/^12C isotope ratio ([10]) as the system suitability test sample and [^14C]-paracetamol as an AMS quality check sample.
For each (diluted) sample, 5 µL blood, 5 µL plasma, 15 µL urine, or 30 mg fecal homogenate prepared in 1% CMC solution (1% CMC solution:feces ratio of 4:1) were transferred to tin foil cups. The samples were dried under a stream of nitrogen and subsequently placed in the elemental analyzer (EA, Vario Micro, Elementar, Germany), which acts as an autosampler and combustion device for the AMS. Single samples of blood, plasma, and urine were analyzed. Fecal homogenates were analyzed in triplicate, and the averaged value was reported. Total radioactivity in plasma and blood was expressed as ng equivalents (Eq) of acoziborole/mL. The LLOQ was 47.3 ngEq/mL in plasma (1.51 mBq/mL), 165.4 ngEq/mL in blood (5.28 mBq/mL), 33.8 ngEq/mL in urine (1.08 mBq/mL), and 87.1 ngEq/mL in feces (2.78 mBq/mL).
Blood-to-plasma ratio was calculated based on Cmax and AUC values. For total radioactivity excreted in urine, feces, and both combined, the following parameters were calculated: total amount of total radioactivity excreted over the time interval between t1 and t2 (Aet1−t2), Aet1−t2 expressed as a percentage of the radioactive dose administered (%Aet1−t2), CumAe, and Cum%Ae. For CumAe calculation, the recovery of total radioactivity during WinNonlin time intervals in which urine and feces were not collected was estimated using the area under the excretion rate-time curve from the end of the preceding collection interval to the start of the subsequent collection interval.

[3] = Metabolite profiling and identification in pools of plasma, urine and feces (UPLC-MS, AMS); format: in vivo, human
Procedure: Individual pools of plasma (0–336 h, including time points at 1, 4, 9, 12, 24, 48, 72, 96, 120, 168, 240, and 336 h), urine (0–240 h, including time intervals 0–6, 6–12, 12–24, 24–48, 48–72, 72–96, 96–120, 120–168, 168–192, 192–216, and 216–240 h) and feces homogenates (0–240 h, including time intervals 0–6, 6–12, 12–24, 24–48, 48–72, 72–96, 96–120, 120–168, and 168–240 h) were prepared; for plasma this was done according to the method described in reference and for feces by using equal percentages per time point based on total volume. Subsequently, a pool per matrix was prepared by mixing equal volumes of each participant pool. In addition, a plasma pre-dose pool was prepared by mixing equal volumes of each pre-dose sample. For urine and feces, TNO blank pool was used to generate a pre-dose sample. Samples were stored below −18°C. Samples (100 µL plasma, 250 µL urine, and 200 mg feces) were pre-treated and injected onto an ultra-high performance liquid chromatography (UPLC)-MS system (Acquity UPLC system [Waters] coupled to a Q-Exactive [Thermo]; Acquity HSS C18 VanGuard 5 mm × 2.1 mm, 1.8 µm [Waters] pre-column and Acquity HSS C18 100 mm × 2.1 mm, 1.8 µm d.p. [Waters]). Fractions were collected and analyzed off-line by AMS. AMS analysis was performed on an AMS system, consisting of an elemental analyzer, a double gas interface, and a 1 MV multi-element AMS. All fecal homogenate sample analyzes were performed in triplicate. Plasma pre-dose and TNO blank urine and feces pools were used for background correction. The UPLC method qualification included determination of retention time stability and extraction recovery. Metabolites were tentatively assigned to fractions in which activity greater than the baseline was observed, based on retention time and structural information provided by DNDi. Presence of the metabolite was confirmed by accurate mass data from high-resolution mass spectrometric analysis.

[4] = biological target: T2, CYP2C8 (Homo sapiens, UniProt P10632); experiment: Incubation with CYP450 recombinant enzymes (Bactosomes) and NADPH; format: in vitro ADME; details: 1 µM
T2 construct: purchased
T2 sequence (P10632 1-490): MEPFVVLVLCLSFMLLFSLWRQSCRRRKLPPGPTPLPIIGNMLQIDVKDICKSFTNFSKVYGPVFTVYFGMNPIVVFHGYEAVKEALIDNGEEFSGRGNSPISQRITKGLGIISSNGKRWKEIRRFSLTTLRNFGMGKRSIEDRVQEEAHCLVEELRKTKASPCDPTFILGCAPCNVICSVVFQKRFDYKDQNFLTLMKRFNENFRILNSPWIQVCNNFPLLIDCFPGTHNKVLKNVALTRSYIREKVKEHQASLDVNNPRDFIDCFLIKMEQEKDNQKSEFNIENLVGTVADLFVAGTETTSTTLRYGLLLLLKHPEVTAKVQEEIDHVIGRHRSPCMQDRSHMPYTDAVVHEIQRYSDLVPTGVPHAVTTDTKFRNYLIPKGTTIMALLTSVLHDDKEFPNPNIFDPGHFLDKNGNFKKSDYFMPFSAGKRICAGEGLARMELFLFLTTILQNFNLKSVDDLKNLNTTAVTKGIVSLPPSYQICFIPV

[5] = N = 6, mean ± SD, listed as [^14C]-acoziborole

CC1(C)OB(O)c2cc(NC(=O)c3ccc(F)cc3C(F)(F)F)ccc21 [acoziborole]
metabolism by recombinant CYP3A4 [1]: metabolized by | mean whole blood to plasma total radioactivity ratios (Cmax and AUC0–240h), interpretation [2]: no affinity for blood cells | median tmax, total radioactivity in plasma ([2]; N = 6): 48 h | AUC0–240h, total radioactivity, whole blood ([2]; N = 6, mean ± SD): 2,250.737 ± 182.816 µg-eq*h/mL | AUC0–t, total radioactivity, plasma ([2]; N = 6, mean ± SD): 5,403.286 ± 1,561.755 µg-eq*h/mL | AUC0–t, total radioactivity, whole blood ([2]; N = 6, mean ± SD): 3,556.202 ± 3,236.208 µg-eq*h/mL | AUC0–∞, total radioactivity, plasma ([2]; N = 6, mean ± SD): 5,785.324 ± 1,105.726 µg-eq*h/mL | AUC0–∞, total radioactivity, whole blood ([2]; N = 6, mean ± SD): 5,382.336 ± 2,473.408 µg-eq*h/mL | tmax, total radioactivity, plasma ([2]; N = 6, mean ± SD): 56.0 ± 12.4 h | tmax, total radioactivity, whole blood ([2]; N = 6, mean ± SD): 68.1 ± 9.9 h | AUC0–240h, total radioactivity, plasma [2, 5]: 2,371.786 ± 255.572 µg-eq*h/mL | t1/2, total radioactivity, plasma [2, 5]: 278.3 h and 278 h and 278.3 ± 47.4 h | t1/2, total radioactivity, whole blood [2, 5]: 239.2 h and 239.2 ± 65.7 h | Cmax, total radioactivity, whole blood ([2]; healthy males, N = 6, mean ± SD): 12.052 ± 1.129 µg-eq/mL | Cmax, total radioactivity, plasma ([2]; healthy males, N = 6, mean ± SD, listed as [^14C]-acoziborole): 13.13 µg-eq/mL and 13.130 ± 1.776 µg-eq/mL | mean whole blood to plasma total radioactivity ratios (Cmax and AUC0–240h), interpretation ([2]; listed as [^14C]-acoziborole): equivalent distribution between blood cells and plasma | proportion of the dose excreted, urine and feces combined ([3]; 0–240 h pools): 34.2% | abundance relative to dose, feces ([3]; feces homogenates 0–240 h): 33.6% | relative abundance in radiochromatogram, feces homogenates pool ([3]; feces homogenates 0–240 h): 66.0% | relative abundance in radiochromatogram (share of total radioactivity), plasma pool ([3]; plasma pool 0–336 h, 960 mg single oral [14C]-acoziborole, listed as Parent (acoziborole)): 95.1% | abundance relative to dose, urine ([3]; urine pool 0–240 h): 0.6% and < 1% | relative abundance in radiochromatogram, urine pool ([3]; urine pool 0–240 h): 7.6% | abundance relative to dose, urine ([3]; urine pool 0–240 h, listed as Parent (acoziborole)): 0.6% | metabolism by recombinant CYP2C8 [4]: metabolized by
